Results reported in US20230066946A1, “1,5-DIPHENYLPYRAZOLYL-3-OXYALKYL ACIDS AND 1-PHENYL-5-THIENYLPYRAZOLYL-3-OXYALKYL ACIDS AND THE USE THEREOF FOR CONTROL OF UNWANTED PLANT GROWTH” (Bayer Aktiengesellschaft, priority 2019, published 2023).

How the values were obtained:
VIOTR = assay: Post-emergence herbicidal action against VIOTR; assay type: in vivo, Viola tricolor; conditions: 320 g/ha, visual rating about 3 weeks after treatment
Procedure: (§1) [table] Seeds of mono- and dicotyledonous weed plants are placed in plastic pots in sandy loam soil (twin sowing with one species each of mono- or dicotyledonous weed plants per pot), covered with soil and cultivated in a greenhouse under controlled growth conditions. 2 to 3 weeks after sowing, the test plants are treated at the one-leaf stage. The compounds of the invention, formulated in the form of wettable powders (WP) or as emulsion concentrates (EC), are applied to the green parts of the plants as aqueous suspension or emulsion with addition of 0.5% additive at a water application rate equivalent to 600 litres per hectare. After the test plants have been kept in the greenhouse under optimum growth conditions for about 3 weeks, the activity of the preparations is rated visually in comparison to untreated controls. For example, 100% activity=the plants have died, 0% activity=like control plants. Tables 5.1-5.16 below show the effects of selected compounds of the general formula (I) according to Tables 1 to 3 on various harmful plants at an application rate corresponding to 1280 or 320 g/ha, which have been obtained by the aforementioned experimental method.

VERPE [1] = assay: Post-emergence herbicidal action against VERPE; assay type: in vivo, Veronica persica; conditions: 320 g/ha, visual rating about 3 weeks after treatment
Procedure: as §1

AMARE [2] = assay: Post-emergence herbicidal action against AMARE; assay type: in vivo, Amaranthus retroflexus; conditions: visual rating about 3 weeks after treatment
Outline: (§2)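 Applied post-emergence at 1280 or 320 g/ha to one-leaf-stage weeds grown in sandy loam, using WP or EC formulations in water (600 litres per hectare, 0.5% additive). Efficacy is scored visually relative to untreated plants about 3 weeks later, 0% meaning no effect and 100% plant death.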

AMARE [3] = assay: Pre-emergence herbicidal action against AMARE; assay type: in vivo, Amaranthus retroflexus; conditions: scored visually after about 3 weeks vs untreated controls; for Pre-emergence action at 320 g/ha against AMARE in %: 100% = plants have died, 0% = like control plants; for Pre-emergence action against AMARE in %: 1280 g/ha
Outline: (§3)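 Visual percent activity (100% = plants dead, 0% = like control) scored about 3 weeks after pre-emergence treatment in greenhouse. Compounds as WP or EC, applied to covering soil surface with 0.5% additive, 600 L/ha water, at 1280 or 320 g/ha.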

STEME [4] = assay: Pre-emergence herbicidal action against STEME; assay type: in vivo, Stellaria media; conditions: scored visually after about 3 weeks vs untreated controls
Outline: as §3

ECHCG = assay: Pre-emergence herbicidal action against ECHCG; assay type: in vivo, Echinochloa crus-galli; conditions: scored visually after about 3 weeks vs untreated controls, 100% = plants have died, 0% = like control plants
Text: (§4) Seeds of mono- and dicotyledonous weed plants are placed in plastic pots in sandy loam soil (doubly sown with one species each of mono- or dicotyledonous weed plants per pot) and covered with soil. The compounds of the invention, formulated in the form of wettable powders (WP) or as emulsion concentrates (EC), are then applied onto the surface of the covering soil as aqueous suspension or emulsion with addition of 0.5% additive at a water application rate equivalent to 600 litres per hectare. After the treatment, the pots are placed in a greenhouse and kept under good growth conditions for the trial plants. After about 3 weeks, the effect of the preparations is scored visually in comparison with untreated controls as percentages. For example, 100% activity=the plants have died, 0% activity=like control plants. [table] Tables 4.1-4.15 below show the effects of selected compounds of the general formula (I) according to Tables 1 to 3 on various harmful plants at an application rate corresponding to 1280 or 320 g/ha, which have been obtained by the aforementioned experimental method.

SETVI [5] = assay: Pre-emergence herbicidal action against SETVI; assay type: in vivo, Setaria viridis; conditions: 1280 g/ha, scored visually after about 3 weeks vs untreated controls
Outline: as §3

MATIN = assay: Post-emergence herbicidal action against MATIN; assay type: in vivo, Matricaria inodora; conditions: visual rating about 3 weeks after treatment
Outline: as §2

POLCO [6] = assay: Pre-emergence herbicidal action against POLCO; assay type: in vivo, Polygonum convolvulus; conditions: 320 g/ha, scored visually after about 3 weeks vs untreated controls
Text: as §4

PHBPU = assay: Post-emergence herbicidal action against PHBPU; assay type: in vivo, Pharbitis purpurea; conditions: 320 g/ha, visual rating about 3 weeks after treatment
Procedure: as §1

VERPE [7] = assay: Pre-emergence herbicidal action against VERPE; assay type: in vivo, Veronica persica; conditions: 320 g/ha, scored visually after about 3 weeks vs untreated controls
Text: as §4

STEME [8] = assay: Post-emergence herbicidal action against STEME; assay type: in vivo, Stellaria media; conditions: 1280 g/ha, visual rating about 3 weeks after treatment
Outline: as §2

POLCO [9] = assay: Post-emergence herbicidal action against POLCO; assay type: in vivo, Polygonum convolvulus; conditions: 320 g/ha, visual rating about 3 weeks after treatment
Procedure: as §1

SETVI [10] = assay: Post-emergence herbicidal action against SETVI; assay type: in vivo, Setaria viridis; conditions: 1280 g/ha, post-emergence at one-leaf stage, rated visually after about 3 weeks vs untreated controls
Procedure: as §1

| Compound | Post-emergence action against VIOTR in % (VIOTR) [%] | Post-emergence action against VERPE in % (VERPE [1]) [%] | Post-emergence action against AMARE in % (AMARE [2]; 320 g/ha) [%] | Post-emergence action against AMARE in % (AMARE [2]; 1280 g/ha) [%] | Pre-emergence action at 320 g/ha against AMARE in % (AMARE [3]) [%] | Pre-emergence action against AMARE in % (AMARE [3]) [%] | Pre-emergence action against STEME in % (STEME [4]; 1280 g/ha) [%] | Pre-emergence action at 1280 g/ha against ECHCG in % (ECHCG) [%] | Pre-emergence action against SETVI in % (SETVI [5]) [%] | Post-emergence action against MATIN in % (MATIN; 320 g/ha) [%] | Post-emergence action against MATIN in % (MATIN; 1280 g/ha) [%] | Pre-emergence action against POLCO in % (POLCO [6]) [%] | Post-emergence action against PHBPU in % (PHBPU) [%] | Pre-emergence action against VERPE in % (VERPE [7]) [%] | Pre-emergence action against STEME in % (STEME [4]; 320 g/ha) [%] | Post-emergence action against STEME in % (STEME [8]) [%] | Post-emergence action against POLCO in % (POLCO [9]) [%] | Post-emergence action against SETVI in % (SETVI [10]) [%] |
| --- | --- | --- | --- | --- | --- | --- | --- | --- | --- | --- | --- | --- | --- | --- | --- | --- | --- | --- |
| COC(=O)COc1nn(-c2ccccc2)c(-c2ccc(F)cc2)c1Br [I-101] | 100 | 80 | 80 | 100 | 90 | 90 | 100 | 100 | 100 | 90 | 90 | 100 | 90 |  |  |  |  |  |
| C[Si](C)(C)COC(=O)COc1nn(-c2ccccc2F)c(-c2ccc(F)c(F)c2)c1Br [I-102] | 90 | 80 | 80 | 90 | 90 | 100 | 90 | 100 | 100 | 80 | 100 | 100 | 90 | 80 | 90 | 100 |  |  |
| COC(=O)C(C)Oc1nn(-c2ccccc2)c(-c2cc(F)cc(F)c2)c1Cl (stereo not drawn) [I-165, Methyl 2-{[4-chloro-5-(3,5-difluorophenyl)-1-phenyl-1H-pyrazol-3-yl]oxy}propanoate] | 80 | 80 |  | 100 | 90 | 100 | 100 |  | 100 |  | 100 |  | 80 | 100 |  | 100 | 80 | 90 |
| C=CCNC(=O)COc1nn(-c2ccccc2)c(-c2ccc(F)cc2)c1Br [III-004] |  |  | 80 | 100 | 80 | 100 | 100 | 100 | 100 |  |  |  | 80 | 100 |  |  | 80 |  |
| C#CCNC(=O)COc1nn(-c2ccccc2)c(-c2ccc(F)cc2)c1Br [III-006] | 80 | 80 | 80 | 100 | 90 | 90 | 100 | 100 | 100 |  |  | 90 | 80 | 90 |  |  |  |  |
| C=CCNC(=O)COc1nn(-c2ccc(F)cc2)c(-c2cccc(F)c2)c1Br [III-015] | 80 | 90 | 80 |  |  | 100 | 100 | 100 | 100 |  |  | 90 | 80 | 90 |  |  | 80 |  |
